According to patent US9649292B2, “Method for treating prostate cancer and/or gastrointestinal cancer” (King Fahd University of Petroleum and Minerals, priority 2015, dated 2017):

Assays:
PC3 cells [1] = assay: MTT assay for antiproliferative effects at fixed concentration; assay type: cell-based, human; conditions: PC3, 10 μM, 24 and 72 h
Method: (§1) An MTT assay was used to obtain the number of living cells in the sample. Human gastric cancer SGC7901 and prostate cancer PC3 cells were seeded on 96-well plates at a predetermined optimal cell density, i.e. ca. 6,000 cells/100 μL per well in 96-well plates, to ensure exponential growth in the duration of the assay. After 24 h pre-incubation, the growth medium was replaced with the experimental medium containing the appropriate drug, using one of gold(III) compounds 1, 2 and 3 or a control using water. Six duplicate wells were set up for each sample, and cells untreated with drug served as a control. In one set of culture plates, human gastric cancer SGC7901 and human prostate PC3 cells were treated with 10 μM compounds 1, 2 and 3 as the drug and the control (water) for 24, 48 and 72 h. In other sets, the compounds 1, 2 and 3 with different concentration, i.e. 10, 20 and 30 μM, were employed to determine the growth inhibitory effect for both PC3 and SGC7901cells separately. After incubation, 10 μL MTT (6 g/L, Sigma) was added to each well and the incubation was continued for 4 h at 37° C. After removal of the medium, MTT stabilization solution [dimethylsulfoxide (DMSO): ethanol (C2H5OH)=1:1 in v/v ratio] was added to each well, and shaken for 10 min until all crystals were dissolved. Then, the optical density was detected in a micro plate reader at 550 nm wavelength using an Enzyme-Linked Immuno-Sorbent Assay (ELISA) reader. After being treated with gold(III) complexes 1, 2 and 3, the cell viability was examined by MTT assay. Each assay was performed in triplicate. An MTT assay for the inhibitory effect has been used for compounds 1, 2 and 3 against PC3 and SGC7901 cells. These cells were treated with various concentrations of compounds 1, 2 and 3 for 24-72 h.

SGC7901 cells [2] = assay: as above; assay type: cell-based, human; conditions: SGC7901, 10 μM, 24 and 72 h
Method: as §1

[3] = Cyclic voltammetry in phosphate buffer; assay type: physicochemical; conditions: phosphate buffer pH 7.4, platinum electrode, 50 mV/s, 1.0 mM
Method: The electrochemical experiments were performed at room temperature using a potentiostat (SP-300, Bio-Logic Science Instruments) controlled by EC-Lab v10.34 software package. The electrochemical experiments were performed at room temperature. All the measurements were performed on solutions de-aerated by bubbling ultra-pure nitrogen for 15 min. The values of reduction potential here reported were measured against a saturated calomel electrode (SCE). The cyclic voltammetry of the compounds 1, 2 and 3 were measured at scan rate of 50 mV/s on a reference buffer (40 mM phosphate, 4 mM NaCl, pH 7.4) using platinum as working electrode and graphite as a counter electrode with a concentration of 1.0 mM at room temperature. Ferrocene was used as pseudo reference to calibrate the working electrode. The couple FeIII/II formal potential of ferrocene occur at E^o/=+0.44 V (vs SCE) in 0.1 MBu4NPF6 solution in CH3CN solvent which is similar to the report value under the same experimental condition [Hans J, Beckmann A, Kruger H-J (1999) Stabilization of Copper(III) ions with deprotonated hydroxyiminoamide ligands: syntheses, structures, and electronic properties of Copper(III) and Copper(III) complexes. Eur J Inorg Chem 1:163-172—incorporated herein by reference in its entirety]. Conversion to values vs ENH was obtained upon adding +0.24 V to the corresponding SCE values.
Gold(III) complexes 1, 2 and 3 show one irreversible reduction process in which the controlled potential coulometry involves three electrons per mole. The occurrence of Au(III)/Au(0) reduction is visually indicated by the appearance of a thin gold layer deposited on the platinum electrode surface after exhaustive electrolysis (Ew, −0.7 V).

[4] = Stability by 1H and 13C NMR in D2O and DMSO-d6/D2O; assay type: physicochemical; conditions: DMSO-d6/D2O (2/1 v/v), room temperature
Method: The stability of complexes 1, 2 and 3 were tested in water as well as in a mixture of solvents i.e. DMSO/water (2/1 in v/v ratio) by ^1H and ^13C NMR measurements. To investigate the structural stability of the complexes, NMR spectra of the complexes dissolved in D2O; and in mixed DMSO-d6/D2O (2/1 in v/v ratio) solution were obtained just after dissolution, 24 h and 1 week at room temperature in mixed DMSO-d6/D2O and at 37° C. in D2O. At least 20 mg of complexes 1, 2 and 3 in 1 mL D2O at 37° C.; and in 1 mL DMSO-d6/D2O (2/1:v/v) at room temperature were subjected to ^1H and ^13C NMR measurements and followed by their spectral analysis. Immediately after dissolution of complexes 1, 2 and 3 in the respective solvents and duplicate samples were then stored at room temperature and 37° C., respectively, and analyzed again after 24 h and 1 week in order to determine stability of complexes. Since the complexes were not used beyond a week after dissolution, so NMR measurements were limited to one week.
NMR spectra of the complexes were obtained upon immediate dissolution to serve as reference spectra and later at 24 h and after 7 days at 37° C. in D2O and at room temperature in mixed DMSO-d6/D2O in order to determine their stability. […] For example, FIGS. 12A-B and 13A-B illustrated, respectively, the ^1H and ^13C NMR profiles of the compound 1 at just after mixing and after 7 days.

PC3 cells [5] = conditions: cited from earlier work
SGC7901 cells [6] = conditions: cited from earlier work; for cytotoxicity with respect to cisplatin: SGC7901 cells
PC3 cells [7] = assay: In vitro cytotoxic MTT assay, IC50; assay type: cell-based, human; conditions: 72 h exposure
Method: (§2) Human prostate PC3 and gastric SGC7901 cells were used throughout the examples of the present disclosure. Cells were cultured in Dulbecco's Modified Eagle Medium (DMEM) supplemented with 10% fetal calf serum (FCS), penicillin (100 kU L^−1) and streptomycin (0.1 g L^−1) at 37° C. in a 5% CO2-95% air atmosphere. Human gastric SGC7901 cells and prostate PC3 were incubated with these compounds at fixed concentrations or with water as a control to assess the inhibitory effect on cell growth. […] The cell survival versus drug concentration is plotted. Cytotoxicity was evaluated in vitro with reference to the IC50 value. The half maximal inhibitory concentration (IC50) is a measure of the effectiveness of a compound to inhibit biological or biochemical functions. According to the FDA, IC50 represents the concentration of a drug/compound/complex that is required for 50% inhibition in vitro. It is evaluated from the survival curves as the concentration needed for a 50% reduction of survival. IC50 values are expressed in μM. The IC50 values were calculated from dose-response curves obtained in replicate experiments.
(§3) The in vitro cytotoxic effect of mixed ligand gold(III) diamine complexes against androgen-resistant prostate PC3 and human gastric SGC7901 cancer cells were studied using MTT assay. […]

SGC7901 cells [8] = assay: In vitro cytotoxic MTT assay, IC50; assay type: cell-based, human; conditions: 72 h exposure
Method: as §2, §3

[9] = tested on: chronic lymphocytic leukemia cells (CLL); conditions: cited from earlier work

SMILES | order of time dependent antiproliferative effect (PC3 cells [1]) | order of time dependent antiproliferative effect (SGC7901 cells [2]) | Ep, peak potential for reduction vs. ENH [3] | cytotoxicity with respect to cisplatin (SGC7901 cells [6]) | other results
NCCN.N[C@H]1CCCC[C@@H]1N.[Cl][Au]([Cl])[Cl] [Complex 3, (S,S)-(+)-1,2-diaminocyclohexane ethylenediamine gold(III) chloride] | complex 1>complex 3>complex 2 | complex 1>complex 3>complex 2 | 0.51 V |  | dissociation of ethylenediamine (en) after 7 days [4]: 25%
NCCN.NCCN.[Au+3].[Cl-].[Cl-].[Cl-] [[Au(en)2]Cl3] |  |  |  | slightly lower cytotoxicity | cytotoxic effect compared to cisplatin (PC3 cells [5]): comparable to that of cisplatin
N.N.[Cl][Pt][Cl] [Cisplatin] |  |  |  |  | IC50 (PC3 cells [7]): 1.1 µM; IC50 (SGC7901 cells [8]): 7.3 µM; intrinsic resistance of SGC7901 relative to PC3 cells (SGC7901 cells [6]; SGC7901 vs PC3): 7-8 fold
NCCN.N[C@@H]1CCCC[C@H]1N.[Cl][Au]([Cl])[Cl] (racemic) [Complex 2, trans-(±)-1,2-diaminocyclohexane ethylenediamine gold(III) chloride] | complex 1>complex 3>complex 2 | complex 1>complex 3>complex 2 | 0.46 V |  | 
NCCN.N[C@@H]1CCCC[C@@H]1N.[Cl][Au]([Cl])[Cl] [Complex 1, cis-1,2-diaminocyclohexane ethylenediamine gold(III) chloride] | complex 1>complex 3>complex 2 | complex 1>complex 3>complex 2 | 0.49 V |  | 
NCCN.[Au+3].[Cl-].[Cl-].[Cl-] [[(en)AuCl2]Cl] |  |  |  | almost two fold more cytotoxic | cytotoxicity profile compared to cisplatin [9]: comparable to cisplatin; lower cytotoxicity as compared to cisplatin (PC3 cells [5]): 7-9 fold
